Consider six compounds from patent US3931197A, “Substituted piperidine derivatives” (Richardson-Merrell Inc., priority 1974, dated 1976).

This assay deals with wheals induced by intradermal injections of 1γ of histamine. Nature of the assay: reduction by 50% of wheals induced by intradermal injections of histamine in guinea pigs. It is filed as in vivo. The conditions noted are these: Cavia porcellus, po, 1 h, orally administered one hour prior to intradermal injection of 1γ histamine, read-out: ED50 (amount of compound required to reduce by 50% wheals induced by intradermal injections of histamine). From the text:
To illustrate the utility of the compounds of this invention the following tabulation indicates the amount of certain representative compounds of this invention required to reduce by 50% wheals induced by intradermal injections of 1γ of histamine into guinea pigs. Each compound was orally administered one hour prior to the histamine injection.

The term ED50 denotes the midpoint of the dose-response relation.

Turning to `CC(C)(C)Cc1ccc(C(=O)CCCN2CCC(C(O)(c3ccccc3)c3ccccc3)CC2)cc1.Cl` [4-[4-(α-Hydroxy-α-phenylbenzyl)piperidino]-4'-neopentyl-butyrophenone hydrochloride], the ED50 was found to be 0.5 mg/kg.

Regarding `Cl.O=C(CCCN1CCC(C(O)(c2ccccc2)c2ccccc2)CC1)c1ccc2ccccc2c1` [4-[4-(α-Hydroxy-α-phenylbenzyl)piperidino]-1-(2-naphthyl)-butan-1-one hydrochloride], the ED50 amounted to 3.6 mg/kg.

In the case of `Cc1ccc(C(O)(c2ccccc2)C2CCN(CCCC(=O)c3ccc(C(C)(C)C)cc3)CC2)cc1.Cl` (stereo not drawn) [4'-tert-Butyl-4-[4-[α-hydroxy-α-(p-tolyl)benzyl]piperidino]-butyrophenone hydrochloride], the ED50 is 6 mg/kg.

Turning to `CC(C)(C)c1ccc(C(=O)CCCN2CCC(C(O)(c3ccccc3)c3ccc(Cl)cc3)CC2)cc1.Cl` (stereo not drawn) [4'-tert-Butyl-4-[4-[α-hydroxy-α-(p-chlorophenyl)benzyl]-piperidino]butyrophenone hydrochloride], the ED50 was found to be 27 mg/kg.

With `Cc1ccc(C(=C2CCN(CCCC(=O)c3ccc(C(C)(C)C)cc3)CC2)c2ccccc2)cc1.Cl` [4'-tert-Butyl-4-[4-[α-(p-tolyl)benzylidene]piperidino]-butyrophenone hydrochloride], the ED50 was around 10 mg/kg.

Take `Cl.O=C(CCCN1CCC(C(O)(c2ccccc2)c2ccccc2)CC1)c1ccc(C2CCCC2)cc1` [4'-Cyclopentyl-4-[4-(α-hydroxy-α-phenylbenzyl)piperidino]-butyrophenone hydrochloride]: the 50% effective dose (ED50) worked out at 2.5 mg/kg.
